Tested on: S. gordonii biofilms
Assay: adapted spinning-disc rheometry analysis of biofilm detachment
Format: cell-based, Streptococcus gordonii
Conditions: for biofilm momentum coefficient (CB): 200-300 rad·s^−1, vs untreated; for area under the curve (AUC) of the torque-angular velocity curves: whole analyzed range
Method: Spinning-disc rheology was adapted to analyze biofilm detachment from surfaces. S. gordonii biofilms were grown on 3D printed coupons for 5 days. The model for the coupons was designed in SolidWorks (Dassault Systèmes). Coupons were 3D printed using a Prime 30 PolyJet 3D printer (Objet, Stratasys) using RGD720 photopolymer for the printing material (Stratasys). The coupon was printed at a resolution of 0.0008 inches. The coupon surface was sanded used P300 sandpaper to create a rougher surface for bacteria to attach. Prior to inoculating, coupons were sterilized in 70% ethanol.
S. gordonii wild type strain DL1 was used in this study. Overnight cultures were prepared by inoculating 10 mL of brain heart infusion broth (Oxoid; BHI) with a colony of S. gordonii and incubated statically overnight at 37° C. with 5% CO2. Sterile 40 mm coupons were placed in a Petri dish containing 40 mL BHI, supplemented with 0.5% sucrose. Coupons were inoculated with 400 μL of overnight culture. Biofilms were incubated in a humidified chamber at 37° C. with 5% CO2, on an orbital shaker at 150 rpm. Every 24 h the media was replenished. […]
Biofilms were analyzed on a Discovery Hybrid Rheometer-2 (HD-2) (TA Instruments). A 15×15 cm square clear acrylic container filled with 2.8 L reverse osmosis water was transferred onto the Peltier plate. Biofilm-coated coupons were immersed and attached to the rheometer shaft using a custom-made adapter probe. The gap distance between the bottom of the container and the coupon was set to 3.5 cm (FIG. 1). Immersed coupons were spun at an angular velocity (ω) range of 0.1-300 rad·s^−1, incrementing the speed over 360 seconds, and the resulting torque (T), a measurement of resistance to rotation, was measured across this velocity range.
Data was collected using TRIOS v5 software (TA instruments), with raw data exported in excel. Data was transformed, and calculations performed in excel. Data was visualized and statistical analysis performed in GraphPad Prism v8 (GraphPad Software). All statistical comparisons were performed using a Student's t-test, with p<0.05 indicating significance.
To more easily observe the changes in torque associated with biofilm detachment, the torque-angular velocity data was linearized and transformed. The data was linearized by taking the square root of the torque. The running slope of 5 data points of the linearized data was determined. […] Therefore, final transformed data is presented as the running slope of the linearized data against angular velocity, starting at 20 rad·s^−1.
Five day S. gordonii biofilms were treated with either PBS (untreated control) or 4% arginine for 2 min. […] After treatment, Biofilms were analyzed on a Discovery Hybrid Rheometer-2 (HD-2) (TA Instruments) as described above. Four biological replicates were analyzed, each with 2-4 technical replicates (total N=11).
To quantify the mechanical differences between arginine treated and untreated S. gordonii biofilms, the biofilm momentum coefficient (CB) across the turbulent regimes of 200-300 rad·s^−1 was determined according to equation 1: […]
To quantify these differences, the angular velocity where the first reduction in torque occurred was converted to the shear stress acting on the outer edge of the coupon, according to equation 3.
Next, the biofilm disrupting effect of arginine was compared with that of glycine and lysine by the spinning-disc rheometry assay to determine if biofilm disrupting effect is a general property of amino acids, or specific to arginine.

[1] = 5 day S. gordonii biofilms, 4% arginine for 2 min, vs PBS untreated control
[2] = 5 day S. gordonii biofilms, 4% arginine for 2 min, vs untreated
[3] = Seven day S. gordonii biofilms, 4% arginine or 0.23M glycine or lysine for 2 min, equation 3, vs untreated
[4] = Seven day S. gordonii biofilms, 4% arginine or 0.23M glycine or lysine for 2 min, vs untreated

| SMILES | torque across angular velocity range (5 day S. gordonii biofilms, 4% arginine for 2 min, 0.1-300 rad·s^−1, vs untreated) | biofilm momentum coefficient (CB) (5 day S. gordonii biofilms, 4% arginine for 2 min) | shear stress at the first reduction in torque (initiation of detachment) (5 day S. gordonii biofilms, 4% arginine for 2 min, equation 3, vs untreated) | angular velocity at which changes in torque associated with biofilm detachment events occurred (5 day S. gordonii biofilms, 4% arginine for 2 min, transformed analysis, vs untreated) | amount of remaining biofilm attached to the coupon after rheometry analysis [1] | biofilm morphology (macroscopic) [1] | changes in torque in transformed data (running slope of torque^1/2 vs angular velocity) [2] | area under the curve (AUC) of the torque-angular velocity curves [2] | biofilm momentum coefficient (CB) (Seven day S. gordonii biofilms, 4% arginine or 0.23M glycine or lysine for 2 min) | shear stress at the first reduction in torque (detachment shear stress) [3] | torque (torque-displacement profile) [4] | area under the curve (AUC) of the torque-angular velocity curves [4] |
| --- | --- | --- | --- | --- | --- | --- | --- | --- | --- | --- | --- | --- |
| N=C(N)NCCC[C@H](N)C(=O)O [arginine] | reduced torque | no statistical difference | significantly lower shear stresses | lower angular velocity ranges | did not appear to affect | did not appear to affect | greater changes in torque | significantly reduced AUC | significantly lower | significantly lower shear stresses | reduced torque | significantly reduced AUC |
| NCCCC[C@H](N)C(=O)O [lysine, reference compound] | – | – | – | – | – | – | – | – | – | no significant difference | – | no significant differences |
| NCC(=O)O [glycine, reference compound] | – | – | – | – | – | – | – | – | – | no significant difference | – | no significant differences |

Source: patent US20240150809A1, “Method of Evaluating the Biofilm Detachment Efficacy of Compositions” (Colgate-Palmolive Company, priority 2021, published 2024)
